# In ChEMBL document CHEMBL1153618, “Discovery of potential new InhA direct inhibitors based on pharmacophore and 3D-QSAR analysis followed by in silico screening” (Eur J Med Chem, 2009):
# Biological target: T1, Enoyl-[acyl-carrier-protein] reductase [NADH] (Mycobacterium tuberculosis, UniProt P9WGR1)
# T1 sequence (P9WGR1 whole entry): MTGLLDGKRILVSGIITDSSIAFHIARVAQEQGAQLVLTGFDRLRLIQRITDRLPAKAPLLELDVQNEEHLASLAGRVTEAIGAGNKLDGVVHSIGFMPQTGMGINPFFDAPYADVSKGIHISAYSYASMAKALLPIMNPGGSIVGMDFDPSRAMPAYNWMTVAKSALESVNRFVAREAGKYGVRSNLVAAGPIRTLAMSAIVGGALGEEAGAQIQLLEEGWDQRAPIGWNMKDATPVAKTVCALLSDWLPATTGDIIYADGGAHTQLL
# Assay: Inhibition of Mycobacterium tuberculosis InhA
row,Structure (SMILES),IC50 [µM]
1,CCOc1ccc(/C=C2/SC(c3ccccc3)=NC2=O)cc1C,10
2,Cc1ccc(NC(=O)c2sc3ccccc3c2Cl)cc1[N+](=O)[O-],2.14
3,COc1ccc(Cl)cc1NC(=O)c1ccc(Cl)c([N+](=O)[O-])c1,4.07
4,COc1cc(NC(=O)c2ccc(C)cc2[N+](=O)[O-])cc(OC)c1,1.35
5,COc1ccc(C(=O)Nc2cc(Cl)cc(Cl)c2)cc1[N+](=O)[O-],7.08
6,O=C(Nc1ccc(Cl)c(Cl)c1)c1ccc(Cl)c([N+](=O)[O-])c1,52.5
7,COc1ccc(/C=C2/SC(N3CCCC3)=NC2=O)cc1OC,7.24
8,CCN(CC)c1ccc(NC(=O)c2ccccc2[N+](=O)[O-])cc1,4.37
9,O=C1N=C(Nc2cc(Cl)cc(Cl)c2)S/C1=C/c1ccco1,17.8
10,COc1ccc(/C=C2/SC(N3CCC(C)CC3)=NC2=O)cc1OC,10.7
11,CCN(CC)c1ccc(/C=C2/SC(N3CCCCC3)=NC2=O)cc1,6.17
12,COc1ccc(Cl)cc1NC(=O)c1ccc(OC)c([N+](=O)[O-])c1,5.01
13,COc1cc(Cl)cc(/C=C2/SC(c3ccccc3)=NC2=O)c1O,10.5
14,Cc1ccc(NC(=O)c2ccccc2[N+](=O)[O-])c(C)c1,10.5
15,COC(=O)c1c(NC(=O)c2ccccc2[N+](=O)[O-])sc2c1CCC2,1.82
16,O=C(Nc1ccc(Cl)cc1Cl)c1ccccc1[N+](=O)[O-],20
17,COc1ccc(OC)c(/C=N/NC2=CS(=O)(=O)c3ccccc32)c1,5.13
18,Cc1cc(Cl)ccc1OCC(=O)Nc1cccc([N+](=O)[O-])c1C,3.47
19,O=C(Nc1cc(Cl)cc(Cl)c1)c1ccccc1[N+](=O)[O-],6.17
20,Cc1ccc(C(=O)Nc2ccc(Cl)cc2Cl)cc1[N+](=O)[O-],8.71
21,CCOC(=O)C1=C(C)N/C(=C/c2cc(OC)ccc2OC)C1=O,3.63
22,COc1cc(Cl)ccc1NC(=O)c1ccc(C)c([N+](=O)[O-])c1,5.01
23,O=[N+]([O-])c1cc(/N=C/c2ccc(Cl)cc2Cl)ccc1Cl,4.68
24,COc1ccc(C(=O)Nc2cc(Cl)ccc2Cl)cc1[N+](=O)[O-],13.8
25,COc1ccc(/C=C2/SC(N3CCCCC3)=NC2=O)cc1OC,11.5
26,COc1ccc(/C=C2\SC(N3CCCCCC3)NC2=O)cc1OC (stereo not given),11
27,O=C(Nc1cc(Cl)c(Cl)cc1Cl)c1ccccc1[N+](=O)[O-],12
28,Cc1ccc(OC(=O)c2ccccc2[N+](=O)[O-])c(Br)c1,9.55
29,O=C(Nc1cc(Cl)ccc1Cl)c1ccc(Cl)c([N+](=O)[O-])c1,20
30,CCN(CC)c1ccc(/C=C2/N=C(c3ccccc3)OC2=O)cc1,3.31
